In brackets after ≈: the same amount, converted by molar mass. Where a SMILES comes first, the peptide text is derived from it. Bridges are numbered along the chain shown (N, C = ends). Roman numbers before positions name the chains, in order. [ ]: non-standard residue; d: D form. Tle = CC(C)(C)[C@H](N)C(=O)O; Hiv = CC(C)[C@H](O)C(=O)O; dDab = NCC[C@@H](N)C(=O)O; hSer = N[C@@H](CCO)C(=O)O; Dab = NCC[C@H](N)C(=O)O; Dap = NC[C@H](N)C(=O)O
Experiments:
Type in all cases: cell-based
[1] = tested on: Klebsiella pneumoniae SSI #3010; details: SSI #3010
Procedure, shortened: (§1)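 Cation-adjusted MH-II broth, 0.002% polysorbate 80, inoculum near 10^6 CFU/mL. MIC read visually after 18-20 h, 35° C; units μg/mL.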

[2] = tested on: Pseudomonas aeruginosa ATCC 27853; details: ATCC 27853
Procedure, shortened: as §1

[3] = tested on: Escherichia coli ATCC 25922; details: ATCC 25922
Procedure, shortened: as §1

[4] = tested on: Acinetobacter baumannii 872842; details: 872842
Procedure, shortened: as §1

[5] = tested on: Escherichia coli 926415; details: 926415
Procedure, shortened: as §1

[6] = tested on: Enterobacter cloacae 848840; details: 848840
Procedure, shortened: as §1

[7] = tested on: Klebsiella pneumoniae 968733; details: 968733
Procedure, shortened: as §1

[8] = tested on: Acinetobacter baumannii DSM 30008; details: DSM 30008
Procedure, shortened: as §1

[9] = tested on: human red blood cells (hRBC); assay: Hemolysis; details: red cells of human, 1 h, 200
Procedure, shortened: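 Washed fresh human RBC (20% v/v) incubated with peptide at 200 μg/mL for 1 h at 37° C with shaking. Supernatant OD540 measured after dilution, blank corrected; percent hemolysis = OD540 peptide / OD540 of 2% Triton X-100 lysis × 100, PBS with 10% water as 0%.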

| MIC [1] [µg/mL] | MIC [2] [µg/mL] | MIC [3] [µg/mL] | MIC [4] [µg/mL] | MIC [5] [µg/mL] | MIC [6] [µg/mL] | MIC [7] [µg/mL] | MIC [8] [µg/mL] | SMILES | Hemolysis at 200 μg/mL [9] [%] |
| --- | --- | --- | --- | --- | --- | --- | --- | --- | --- |
| 0.0625 (≈ 0.0253 µM) | 0.125 (≈ 0.0506 µM) | 0.03125 (≈ 0.0127 µM) | 0.25 (≈ 0.101 µM) | 0.5 (≈ 0.203 µM) | 0.125 (≈ 0.0506 µM) | 1 (≈ 0.405 µM) | 0.0625 (≈ 0.0253 µM) | CC(=O)N[C@H](C(=O)N[C@H]1CSSC[C@@H](C(=O)N[C@@H](CO)C(N)=O)NC(=O)[C@H](C(C)C)NC(=O)[C@H](CCC(=O)O)NC(=O)[C@H](Cc2c[nH]c3ccccc23)NC(=O)[C@H](CO)NC(=O)[C@@H](CCN)NC(=O)[C@H](CCC(=O)N[C@@H](CCN)C(=O)N[C@H](C(=O)N[C@@H](CN)C(=O)N[C@H]2CCNC(=O)[C@H]([C@@H](C)O)NC(=O)[C@H](CCN)NC(=O)[C@H](CCN)NC(=O)[C@H](CC(C)C)NC(=O)[C@@H](CC(C)C)NC(=O)[C@H](CCN)NC2=O)[C@@H](C)O)NC(=O)[C@H](CCCCN)NC(=O)[C@H](Cc2ccc(O)cc2)NC1=O)C(C)C [Ex. 151] (I: Ac-VCYKE[dDab]SWEVCS-NH2 / II: [Dab]T[Dap][Dab][Dab][dL]L[Dab][Dab]T; disulfide I:2-I:11; amide I:5-II:N; lactam II:4-II:C) | <1 |
| 0.25 (≈ 0.102 µM) | 0.25 (≈ 0.102 µM) | 0.125 (≈ 0.0509 µM) | 1 (≈ 0.407 µM) | 2 (≈ 0.815 µM) | 0.5 (≈ 0.204 µM) | 8 (≈ 3.26 µM) | 0.125 (≈ 0.0509 µM) | CC(=O)N[C@H](C(=O)N[C@H]1CSSC[C@@H](C(=O)N[C@@H](CO)C(N)=O)NC(=O)[C@H](C(C)C)NC(=O)[C@H](CC(=O)O)NC(=O)[C@H](Cc2c[nH]c3ccccc23)NC(=O)[C@H](CO)NC(=O)[C@@H](CCN)NC(=O)[C@H](CCC(=O)N[C@@H](CCN)C(=O)N[C@H](C(=O)N[C@@H](CN)C(=O)N[C@H]2CCNC(=O)[C@H]([C@@H](C)O)NC(=O)[C@H](CCN)NC(=O)[C@H](CCN)NC(=O)[C@H](CC(C)C)NC(=O)[C@@H](CC(C)C)NC(=O)[C@H](CCN)NC2=O)[C@@H](C)O)NC(=O)[C@H](CCCCN)NC(=O)[C@H](Cc2ccc(O)cc2)NC1=O)C(C)C [Ex. 152] (I: Ac-VCYKE[dDab]SWDVCS-NH2 / II: [Dab]T[Dap][Dab][Dab][dL]L[Dab][Dab]T; disulfide I:2-I:11; amide I:5-II:N; lactam II:4-II:C) | <1 |
| 0.0625 (≈ 0.0255 µM) | 0.125 (≈ 0.0509 µM) | 0.0625 (≈ 0.0255 µM) | 0.0625 (≈ 0.0255 µM) | 0.125 (≈ 0.0509 µM) | 0.125 (≈ 0.0509 µM) | 0.25 (≈ 0.102 µM) | 0.03125 (≈ 0.0127 µM) | CC(=O)N[C@H](C(=O)N[C@H]1CSSC[C@@H](C(=O)N[C@@H](CO)C(N)=O)NC(=O)[C@H](C(C)C)NC(=O)[C@H](CCC(=O)O)NC(=O)[C@H](Cc2c[nH]c3ccccc23)NC(=O)[C@H](CCN)NC(=O)[C@@H](CCN)NC(=O)[C@H](CCC(=O)N[C@@H](CCN)C(=O)N[C@H](C(=O)N[C@@H](CN)C(=O)N[C@H]2CCNC(=O)[C@H]([C@@H](C)O)NC(=O)[C@H](CCN)NC(=O)[C@H](CCN)NC(=O)[C@H](CC(C)C)NC(=O)[C@@H](CC(C)C)NC(=O)[C@H](CCN)NC2=O)[C@@H](C)O)NC(=O)[C@H](CCN)NC(=O)[C@H](Cc2ccc(O)cc2)NC1=O)C(C)C [Ex. 153] (I: Ac-VCY[Dab]E[dDab][Dab]WEVCS-NH2 / II: [Dab]T[Dap][Dab][Dab][dL]L[Dab][Dab]T; disulfide I:2-I:11; amide I:5-II:N; lactam II:4-II:C) | <1 |
| 0.0625 (≈ 0.0255 µM) | 0.125 (≈ 0.0509 µM) | 0.03125 (≈ 0.0127 µM) | 0.0625 (≈ 0.0255 µM) | 0.125 (≈ 0.0509 µM) | 0.125 (≈ 0.0509 µM) | 0.25 (≈ 0.102 µM) | 0.01562 (≈ 0.00636 µM) | CC(=O)N[C@H](C(=O)N[C@H]1CSSC[C@@H](C(=O)N[C@@H](CO)C(N)=O)NC(=O)[C@H](C(C)(C)C)NC(=O)[C@H](CCC(=O)O)NC(=O)[C@H](Cc2c[nH]c3ccccc23)NC(=O)[C@H](CO)NC(=O)[C@@H](CCN)NC(=O)[C@H](CCC(=O)N[C@@H](CCN)C(=O)N[C@H](C(=O)N[C@@H](CN)C(=O)N[C@H]2CCNC(=O)[C@H]([C@@H](C)O)NC(=O)[C@H](CCN)NC(=O)[C@H](CCN)NC(=O)[C@H](CC(C)C)NC(=O)[C@@H](CC(C)C)NC(=O)[C@H](CCN)NC2=O)[C@@H](C)O)NC(=O)[C@H](CCN)NC(=O)[C@H](Cc2ccc(O)cc2)NC1=O)C(C)C [Ex. 154] (I: Ac-VCY[Dab]E[dDab]SWE[Tle]CS-NH2 / II: [Dab]T[Dap][Dab][Dab][dL]L[Dab][Dab]T; disulfide I:2-I:11; amide I:5-II:N; lactam II:4-II:C) | <1 |
| 0.125 (≈ 0.0509 µM) | 0.125 (≈ 0.0509 µM) | 0.0625 (≈ 0.0255 µM) | 0.125 (≈ 0.0509 µM) | 0.5 (≈ 0.204 µM) | 0.125 (≈ 0.0509 µM) | 0.5 (≈ 0.204 µM) | 0.0625 (≈ 0.0255 µM) | CC(=O)N[C@H](C(=O)N[C@H]1CSSC[C@@H](C(=O)N[C@@H](CO)C(N)=O)NC(=O)[C@H](C(C)C)NC(=O)[C@H](CCC(=O)O)NC(=O)[C@H](Cc2c[nH]c3ccccc23)NC(=O)[C@H](CCO)NC(=O)[C@@H](CCN)NC(=O)[C@H](CCC(=O)N[C@@H](CCN)C(=O)N[C@H](C(=O)N[C@@H](CN)C(=O)N[C@H]2CCNC(=O)[C@H]([C@@H](C)O)NC(=O)[C@H](CCN)NC(=O)[C@H](CCN)NC(=O)[C@H](CC(C)C)NC(=O)[C@@H](CC(C)C)NC(=O)[C@H](CCN)NC2=O)[C@@H](C)O)NC(=O)[C@H](CCN)NC(=O)[C@H](Cc2ccc(O)cc2)NC1=O)C(C)C [Ex. 155] (I: Ac-VCY[Dab]E[dDab][hSer]WEVCS-NH2 / II: [Dab]T[Dap][Dab][Dab][dL]L[Dab][Dab]T; disulfide I:2-I:11; amide I:5-II:N; lactam II:4-II:C) | 1 |
| 0.125 (≈ 0.0506 µM) | 0.125 (≈ 0.0506 µM) | 0.03125 (≈ 0.0127 µM) | 0.125 (≈ 0.0506 µM) | 0.125 (≈ 0.0506 µM) | 0.125 (≈ 0.0506 µM) | 0.25 (≈ 0.101 µM) | 0.0625 (≈ 0.0253 µM) | CC(=O)N[C@H](C(=O)N[C@H]1CSSC[C@@H](C(=O)N[C@@H](CO)C(N)=O)NC(=O)[C@H](C(C)(C)C)NC(=O)[C@H](CCC(=O)O)NC(=O)[C@H](Cc2c[nH]c3ccccc23)NC(=O)[C@H](CCO)NC(=O)[C@@H](CCN)NC(=O)[C@H](CCC(=O)N[C@@H](CCN)C(=O)N[C@H](C(=O)N[C@@H](CN)C(=O)N[C@H]2CCNC(=O)[C@H]([C@@H](C)O)NC(=O)[C@H](CCN)NC(=O)[C@H](CCN)NC(=O)[C@H](CC(C)C)NC(=O)[C@@H](CC(C)C)NC(=O)[C@H](CCN)NC2=O)[C@@H](C)O)NC(=O)[C@H](CCN)NC(=O)[C@H](Cc2ccc(O)cc2)NC1=O)C(C)C [Ex. 156] (I: Ac-VCY[Dab]E[dDab][hSer]WE[Tle]CS-NH2 / II: [Dab]T[Dap][Dab][Dab][dL]L[Dab][Dab]T; disulfide I:2-I:11; amide I:5-II:N; lactam II:4-II:C) | <1 |
| 0.125 (≈ 0.0518 µM) | 0.25 (≈ 0.104 µM) | 0.0625 (≈ 0.0259 µM) | 0.5 (≈ 0.207 µM) | 1 (≈ 0.414 µM) | 0.25 (≈ 0.104 µM) | 1 (≈ 0.414 µM) | 0.125 (≈ 0.0518 µM) | CC(C)C[C@@H]1NC(=O)[C@@H](CC(C)C)NC(=O)[C@H](CCN)NC(=O)[C@@H](NC(=O)[C@H](CN)NC(=O)[C@@H](NC(=O)[C@H](CCN)NC(=O)CC[C@@H]2NC(=O)[C@H](CCN)NC(=O)[C@H](Cc3ccc(O)cc3)NC(=O)[C@@H](NC(=O)[C@@H](O)C(C)C)CSSC[C@@H](C(=O)N[C@@H](CO)C(N)=O)NC(=O)[C@H](C(C)C)NC(=O)[C@H](CCC(=O)O)NC(=O)[C@H](Cc3c[nH]c4ccccc34)NC(=O)[C@H](CCO)NC(=O)[C@@H](CCN)NC2=O)[C@@H](C)O)CCNC(=O)[C@H]([C@@H](C)O)NC(=O)[C@H](CCN)NC(=O)[C@H](CCN)NC1=O [Ex. 157] (I: H-[Hiv]CY[Dab]E[dDab][hSer]WEVCS-NH2 / II: [Dab]T[Dap][Dab][Dab][dL]L[Dab][Dab]T; disulfide I:2-I:11; amide I:5-II:N; lactam II:4-II:C) | <1 |
| 0.125 (≈ 0.0503 µM) | 0.25 (≈ 0.101 µM) | 0.0625 (≈ 0.0252 µM) | 0.25 (≈ 0.101 µM) | 0.5 (≈ 0.201 µM) | 0.125 (≈ 0.0503 µM) | 1 (≈ 0.403 µM) | 0.0625 (≈ 0.0252 µM) | CC(=O)N[C@H](C(=O)N[C@H]1CSSC[C@@H](C(=O)N[C@@H](CO)C(N)=O)NC(=O)[C@H](C(C)C)NC(=O)[C@H](CCC(=O)O)NC(=O)[C@H](Cc2c[nH]c3ccccc23)NC(=O)[C@H](CCO)NC(=O)[C@@H](CCN)NC(=O)[C@H](CCC(=O)N[C@@H](CCN)C(=O)N[C@H](C(=O)N[C@@H](CN)C(=O)N[C@H]2CCNC(=O)[C@H]([C@@H](C)O)NC(=O)[C@H](CCN)NC(=O)[C@H](CCN)NC(=O)[C@H](CC(C)C)NC(=O)[C@@H](CC(C)C)NC(=O)[C@H](CCN)NC2=O)[C@@H](C)O)NC(=O)[C@H](CCCCN)NC(=O)[C@H](Cc2ccc(O)cc2)NC1=O)C(C)C [Ex. 158] (I: Ac-VCYKE[dDab][hSer]WEVCS-NH2 / II: [Dab]T[Dap][Dab][Dab][dL]L[Dab][Dab]T; disulfide I:2-I:11; amide I:5-II:N; lactam II:4-II:C) | <1 |

Reference: patent US11629171B2, “Beta-hairpin peptidomimetics” (POLYPHOR AG, priority 2017, dated 2023)
